This passage reports IC50 and Relative agonist activity results from ChEMBL document CHEMBL1124939, “Synthesis of thromboxane receptor antagonists with bicyclo[3.1.0]hexane ring systems” (J Med Chem, 1990).

Format in all cases: functional
The species named for assay [1] is Oryctolagus cuniculus. The assay is described as follows: Tested for the inhibitory activity against aggregation of rabbit platelet-rich plasma (PRP) induced by 500 uM of arachidonic acid.
The species named for assay [2] is Rattus norvegicus. The assay is described as follows: Tested for the inhibitory activity against aggregation of rat washed platelets (WP) induced by 4 micro g/mL of collagen.
For assay [3], the species on record is Rattus norvegicus. Kind of assay: The partial agonistic activity (shape change of rat WP) induced by test compound at 1 uM was calibrated for that of S-145.

The structures appear in SMILES notation.

Take `O=C(O)CCC/C=C\C[C@H]1[C@@H]2CCC(C2)[C@@H]1NS(=O)(=O)c1ccccc1`: the concentration for half-maximal inhibition (IC50) in assay [1] came out at 1 µM; in assay [2], 1 nM. Besides, the Relative agonist activity in assay [3] stood at 100.
On the same counts, the results for `O=C([O-])CCC/C=C\C[C@H]1C2CC2C[C@H]1NS(=O)(=O)c1ccccc1.[Na+]` (mixture of isomers) are 37.8 µM, 25 nM and 33.
On the same counts, the results for `O=C([O-])CCC/C=C\C[C@H]1C2O[C@H]2C[C@H]1NS(=O)(=O)c1ccccc1.[Na+]` (mixture of isomers) are 49.1 µM, 23 nM and 26.
As for `O=C([O-])CCC/C=C\C[C@H]1C2O[C@H]2C[C@@H]1NS(=O)(=O)c1ccccc1.[Na+]` (mixture of isomers), the half-maximal inhibitory concentration (IC50) was 2.6 µM in assay [1] and 4 nM in assay [2]. Moreover, the Relative agonist activity in assay [3] is 82.
As for `O=C([O-])CCC/C=C\C[C@H]1C2OC2C[C@@H]1NS(=O)(=O)c1ccccc1.[Na+]` (mixture of isomers), the half-inhibitory concentration (IC50) came out at 391 µM in assay [1] and 100 nM in assay [2]. In assay [3], the Relative agonist activity is listed as 0.
Consider `O=C([O-])CCC/C=C\C[C@H]1[C@@H]2C[C@@H]2C[C@@H]1NS(=O)(=O)c1ccccc1.[Na+]` (racemic), for which the IC50 in assay [1] was 11.3 µM; in assay [2], 12.5 nM. The Relative agonist activity in assay [3] was found to be 22.
Take `CC1(C)[C@@H]2[C@H](C/C=C\CCCC(=O)[O-])[C@@H](NS(=O)(=O)c3ccccc3)C[C@@H]21.[Na+]` (racemic): the IC50 in assay [1] was 44 µM; in assay [2] it was 4.3 nM. Moreover, the Relative agonist activity in assay [3] stood at 22.
As for `O=C([O-])CCC/C=C\C[C@H]1[C@@H]2S[C@@H]2C[C@@H]1NS(=O)(=O)c1ccccc1.[Na+]` (racemic), the concentration for half-maximal inhibition (IC50) in assay [1] was 178 µM; in assay [2], 10 nM. Moreover, the Relative agonist activity in assay [3] is 0.
On the same counts, the results for `O=C([O-])CCC/C=C\C[C@H]1[C@H]2C[C@H]2C[C@@H]1NS(=O)(=O)c1ccccc1.[Na+]` (racemic) are 5.3 µM, 8.3 nM and 67.
The matching figures for `CC1(C)[C@H]2[C@H](C/C=C\CCCC(=O)[O-])[C@@H](NS(=O)(=O)c3ccccc3)C[C@H]21.[Na+]` (racemic): 432 µM, 4.1 nM and 11.
As for `O=C([O-])CCC/C=C\C[C@H]1[C@H]2S[C@H]2C[C@@H]1NS(=O)(=O)c1ccccc1.[Na+]` (racemic), the IC50 in assay [1] is 11.3 µM; in assay [2], 2.9 nM. The same compound returned a Relative agonist activity in assay [3] of 74.
